According to PubChem BioAssay AID1963832 (Molecular Pharmacology Branch, DTP, NCI, 2024):

Test system: 885724-159-R-J1-PDC complex spheroid viability
Experiment: Anticancer human tumor 885724-159-R-J1-PDC patient-derived pancreatic adenocarcinoma cell line growth inhibition [POLQ]
Settings: for IC50: curve of first compound; for viability, T/C: stronger effect = lower value
Procedure, shortened: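 PDC + HUVEC + MSC complex spheroids; POLQ inhibitors ± partner drugs; top conc. at/near clinical Cmax, else 10 microM (SN-38 1 microM), half-log dilutions; 37 degrees C, 5% CO2.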

[1] = second compound 0.0316 µM, first compound 0.0316 µM
[2] = second compound 0.0316 µM, first compound 0.1 µM
[3] = second compound 0.0316 µM, first compound 0.316 µM
[4] = second compound 0.0316 µM, first compound 1 µM
[5] = second compound 0.0316 µM, first compound 3.16 µM
[6] = second compound 0.0316 µM, first compound 10 µM
[7] = second compound 0.1 µM, first compound 0.0316 µM
[8] = second compound 0.1 µM, first compound 0.1 µM
[9] = second compound 0.1 µM, first compound 0.316 µM
[10] = second compound 0.1 µM, first compound 1 µM
[11] = second compound 0.1 µM, first compound 3.16 µM
[12] = second compound 0.1 µM, first compound 10 µM
[13] = second compound 0.316 µM, first compound 0.0316 µM
[14] = second compound 0.316 µM, first compound 0.1 µM
[15] = second compound 0.316 µM, first compound 0.316 µM
[16] = second compound 0.316 µM, first compound 1 µM
[17] = second compound 0.316 µM, first compound 3.16 µM
[18] = second compound 0.316 µM, first compound 10 µM
[19] = second compound 1 µM, first compound 0.0316 µM
[20] = second compound 1 µM, first compound 0.1 µM
[21] = second compound 1 µM, first compound 0.316 µM
[22] = second compound 1 µM, first compound 1 µM
[23] = second compound 1 µM, first compound 3.16 µM
[24] = second compound 1 µM, first compound 10 µM
[25] = second compound 3.16 µM, first compound 0.0316 µM
[26] = second compound 3.16 µM, first compound 0.1 µM
[27] = second compound 3.16 µM, first compound 0.316 µM
[28] = second compound 3.16 µM, first compound 1 µM
[29] = second compound 3.16 µM, first compound 3.16 µM
[30] = second compound 3.16 µM, first compound 10 µM
[31] = second compound 10 µM, first compound 0.0316 µM
[32] = second compound 10 µM, first compound 0.1 µM
[33] = second compound 10 µM, first compound 0.316 µM
[34] = second compound 10 µM, first compound 1 µM
[35] = second compound 10 µM, first compound 3.16 µM
[36] = second compound 10 µM, first compound 10 µM
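Note: spheroids exposed to compounds for 7 days.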

For `C#Cc1c(F)ccc2cc(O)cc(-c3ncc4c(N5CC6CCC(C5)N6)nc(OCC56CCCN5CC(F)C6)nc4c3F)c12` (stereo not drawn) + Cc1cccc(N(C)C(=O)C2C(O)CCN2c2nc(C)cc(C(F)(F)F)c2C#N)c1, the IC50 (second compound 0.0316 µM) was 2450 nM, the IC50 (second compound 0.1 µM) was 2330 nM and the IC50 (second compound 0.316 µM) was 2140 nM. It also gave an IC50 (second compound 1 µM) of 2170 nM, an IC50 (second compound 3.16 µM) of 1930 nM and an IC50 (second compound 10 µM) of 1470 nM. For the same compound, the viability, T/C [1] was 98.6%, the viability, T/C [2] was 92.6% and the viability, T/C [3] was 78.5%. The viability, T/C [4] was 72%, the viability, T/C [5] was 42.4% and the viability, T/C [6] was 19.9%. The viability, T/C [7] was 101%, the viability, T/C [8] was 93.1% and the viability, T/C [9] was 83.9%. For the same compound, the viability, T/C [10] was 68.8%, the viability, T/C [11] was 42.7% and the viability, T/C [12] was 18.4%. The viability, T/C [13] was 95.5%, the viability, T/C [14] was 87.5% and the viability, T/C [15] was 95.4%. For the same compound, the viability, T/C [16] was 70%, the viability, T/C [17] was 39.7% and the viability, T/C [18] was 20.6%. For the same compound, the viability, T/C [19] was 93.3%, the viability, T/C [20] was 101% and the viability, T/C [21] was 79.7%. The viability, T/C [22] was 64.5%, the viability, T/C [23] was 44.2% and the viability, T/C [24] was 21.2%. For the same compound, the viability, T/C [25] was 92.8%, the viability, T/C [26] was 94.2% and the viability, T/C [27] was 80.4%. The viability, T/C [28] was 62.8%, the viability, T/C [29] was 40.7% and the viability, T/C [30] was 19%. It also gave a viability, T/C [31] of 93.8%, a viability, T/C [32] of 81% and a viability, T/C [33] of 80.3%. The viability, T/C [34] was 55.3%, the viability, T/C [35] was 36.2% and the viability, T/C [36] was 19.9%.
In the case of `O=C(c1cc(Cc2n[nH]c(=O)c3ccccc23)ccc1F)N1CCN(C(=O)C2CC2)CC1` + Cc1cccc(N(C)C(=O)C2C(O)CCN2c2nc(C)cc(C(F)(F)F)c2C#N)c1, the IC50 (second compound 0.0316 µM) is reported as > 10000 nM, the IC50 (second compound 0.1 µM) is reported as > 10000 nM and the IC50 (second compound 0.316 µM) is reported as > 10000 nM. The IC50 (second compound 1 µM) was > 10000 nM, the IC50 (second compound 3.16 µM) was > 10000 nM and the IC50 (second compound 10 µM) was > 10000 nM. For the same compound, the viability, T/C [1] was 85.9%, the viability, T/C [2] was 99.1% and the viability, T/C [3] was 97.2%. For the same compound, the viability, T/C [4] was 94.2%, the viability, T/C [5] was 94.6% and the viability, T/C [6] was 76.3%. The viability, T/C [7] was 97.3%, the viability, T/C [8] was 104% and the viability, T/C [9] was 100%. For the same compound, the viability, T/C [10] was 102%, the viability, T/C [11] was 94.7% and the viability, T/C [12] was 83.1%. For the same compound, the viability, T/C [13] was 104%, the viability, T/C [14] was 91.7% and the viability, T/C [15] was 91.9%. For the same compound, the viability, T/C [16] was 99.6%, the viability, T/C [17] was 98% and the viability, T/C [18] was 75.9%. For the same compound, the viability, T/C [19] was 109%, the viability, T/C [20] was 84.3% and the viability, T/C [21] was 89.1%. The viability, T/C [22] was 94.1%, the viability, T/C [23] was 94.6% and the viability, T/C [24] was 86.1%. The viability, T/C [25] was 92%, the viability, T/C [26] was 89.7% and the viability, T/C [27] was 99.1%. It also gave a viability, T/C [28] of 89.2%, a viability, T/C [29] of 103% and a viability, T/C [30] of 82.9%. For the same compound, the viability, T/C [31] was 98%, the viability, T/C [32] was 109% and the viability, T/C [33] was 109%. The viability, T/C [34] was 86.1%, the viability, T/C [35] was 104% and the viability, T/C [36] was 79.9%.
`CC1COCCN1c1cc(C2(O)CC3CCC(C2)O3)c2cnn(-c3ccn[nH]3)c2n1` (stereo not drawn) + Nc1ccc(C#CCN(C(=O)Cc2ncc(C(F)(F)F)cc2C(F)(F)F)c2ccc(F)cc2)nn1 showed an IC50 (second compound 0.0316 µM) of 321 nM, an IC50 (second compound 0.1 µM) of 237 nM and an IC50 (second compound 0.316 µM) of 177 nM. The IC50 (second compound 1 µM) was 237 nM, the IC50 (second compound 3.16 µM) was 202 nM and the IC50 (second compound 10 µM) was 236 nM. It also gave a viability, T/C [1] of 72.7%, a viability, T/C [2] of 54.7% and a viability, T/C [3] of 50.8%. For the same compound, the viability, T/C [4] was 42.6%, the viability, T/C [5] was 36.3% and the viability, T/C [6] was 26.8%. For the same compound, the viability, T/C [7] was 77.8%, the viability, T/C [8] was 58.3% and the viability, T/C [9] was 46.2%. The viability, T/C [10] was 40.6%, the viability, T/C [11] was 37.4% and the viability, T/C [12] was 31.4%. It also gave a viability, T/C [13] of 72.4%, a viability, T/C [14] of 52.5% and a viability, T/C [15] of 45.2%. The viability, T/C [16] was 38.9%, the viability, T/C [17] was 39.9% and the viability, T/C [18] was 28.4%. For the same compound, the viability, T/C [19] was 65.2%, the viability, T/C [20] was 51.5% and the viability, T/C [21] was 47.7%. The viability, T/C [22] was 43.6%, the viability, T/C [23] was 35.9% and the viability, T/C [24] was 27%. The viability, T/C [25] was 67%, the viability, T/C [26] was 53% and the viability, T/C [27] was 45.4%. For the same compound, the viability, T/C [28] was 43.5%, the viability, T/C [29] was 35.3% and the viability, T/C [30] was 30.4%. For the same compound, the viability, T/C [31] was 62.9%, the viability, T/C [32] was 53% and the viability, T/C [33] was 49.4%. For the same compound, the viability, T/C [34] was 41.8%, the viability, T/C [35] was 37% and the viability, T/C [36] was 30.5%.
With `COc1cc2cc(C(=O)CCC(=O)O)sc2cc1OC` + Cc1cccc(N(C)C(=O)C2C(O)CCN2c2nc(C)cc(C(F)(F)F)c2C#N)c1 the IC50 (second compound 0.0316 µM) was > 10000 nM, the IC50 (second compound 0.1 µM) was > 10000 nM and the IC50 (second compound 0.316 µM) was > 10000 nM. For the same compound, the IC50 (second compound 1 µM) was > 10000 nM, the IC50 (second compound 3.16 µM) was > 10000 nM and the IC50 (second compound 10 µM) was > 10000 nM. For the same compound, the viability, T/C [1] was 108%, the viability, T/C [2] was 104% and the viability, T/C [3] was 100%. The viability, T/C [4] was 103%, the viability, T/C [5] was 107% and the viability, T/C [6] was 95.6%. The viability, T/C [7] was 114%, the viability, T/C [8] was 103% and the viability, T/C [9] was 96.9%. The viability, T/C [10] was 104%, the viability, T/C [11] was 99.2% and the viability, T/C [12] was 103%. The viability, T/C [13] was 99.5%, the viability, T/C [14] was 106% and the viability, T/C [15] was 89.2%. For the same compound, the viability, T/C [16] was 109%, the viability, T/C [17] was 98.4% and the viability, T/C [18] was 85.7%. For the same compound, the viability, T/C [19] was 105%, the viability, T/C [20] was 114% and the viability, T/C [21] was 93.1%. It also gave a viability, T/C [22] of 104%, a viability, T/C [23] of 105% and a viability, T/C [24] of 93.5%. It also gave a viability, T/C [25] of 116%, a viability, T/C [26] of 96.5% and a viability, T/C [27] of 103%. For the same compound, the viability, T/C [28] was 98%, the viability, T/C [29] was 104% and the viability, T/C [30] was 88.6%. It also gave a viability, T/C [31] of 101%, a viability, T/C [32] of 105% and a viability, T/C [33] of 99.2%. For the same compound, the viability, T/C [34] was 102%, the viability, T/C [35] was 87.7% and the viability, T/C [36] was 92.5%.
